Consider 13 molecules from patent US5256685A, “Mitomycin derivatives” (Kyowa Hakko Kogyo Co., Ltd., priority 1991, dated 1993).

One series relates to Sarcoma 180 solid tumor. Briefly: Anti-tumor activity to sarcoma 180 solid tumor. The class given is in vivo. Conditions: Mus musculus, Sarcoma-180, iv, 168 h; dose showing T/C=0.5 (tumor volume, 7 days after implantation); single i.v. injection 24 hours after s.c. implantation; male ddY mice. On the procedure: Anti-tumor activity to sarcoma 180 solid tumor
5×10^6 Sarcoma 180 cells were abdominally implanted into a ddY mouse and the cells were collected from the ascites of the mouse 7 days after the implantation. The cells were washed once with a sterilized physiological saline solution and then suspended in a sterilized physiological saline solution to prepare a cell suspension of 5×10^7 cells/ml.
0.1 ml of the cell suspension was subcutaneously implanted into the right axillary space of male ddY mice weighing 20±2 g.
A test compound was dissolved in a physiological saline solution or a polyoxyethylene sorbitan monolaurate-containing physiological saline solution, and 0.1 to 0.2 ml of the solution was intravenously injected to 5 mice as one group 24 hours after the implantation of the tumor cells.
The anti-tumor activity of the test compound was determined by measuring the major axis (a) and the minor axis (b) of the tumor 7 days after the implantation of tumor cells, and the value of (a×b^2 /2), which corresponds to the volume of the tumor, was calculated. The intended anti-tumor activity is represented by a ratio of T/C, in which C indicates the tumor volume of mice of the control group to which no test compound was administered and T indicates the tumor volume of mice of the test group to which the test compound was administered. T/C at each dose given was plotted on the vertical axis and a dose is shown by a logarithmic scale on the horizontal axis. The relationship between the dose and T/C was determined to be a straight line by the least squares method. From the regression formula of the straight line thus obtained, the dose showing T/C=0.5 was calculated to give ED50.

The nature of another series: Acute toxicity. Conditions: mouse, in vivo, iv; i.v. once, ddY mice, observed 14 days; Behrens-Kaerber's method. On the procedure:
A test compound was intravenously injected once to five ddY mice as one group. […] LD50 was calculated from the death rate of each group to which the test compound was administered according to the Behrens-Kaerber's method.

The test system of another series is HeLaS3 cells. Nature of the series: Growth inhibition test on HeLaS3 cells. The class given is cell-based. Conditions: Homo sapiens, HeLa S3, 1 h exposure, then 72 h incubation at 37° C., Neutral Red. How it is done:
Growth inhibition test on HeLaS3 cells
HeLaS3 cells were suspended in an MEM medium containing 10% fetal calf serum and 2 mM glutamine at a density of 3×10^4 cells/ml, and 0.1 ml of the cell suspension was put into each well of a 96-well microtiter plate.
After culturing at 37° C. overnight in a carbon dioxide gas incubator, 0.05 ml each of a test compound appropriately diluted with the medium was added to each well. The cells were further cultured for an hour in the carbon dioxide gas incubator, and the culture supernatant was removed. The residue was washed once with a phosphate buffered saline [PBS (-)] and 0.1 ml each of a fresh medium was added to each well. The cells were further incubated at 37° C. for 72 hours in the carbon dioxide gas incubator. After removal of the culture supernatant, 0.1 ml each of the culture medium containing 0.02% Neutral Red was added to each well, and the cells were further incubated at 37° C. for an hour in the carbon dioxide gas incubator to stain the cells.
After removal of the culture supernatant, each well was washed once with a physiological saline, and the dye was extracted with 0.001N HCl/30% ethanol. Absorbance of the extract at 550 nm was measured with a microplate reader. The cell growth inhibition percentage was calculated according to the following equation from the absorbance of the extract of the cells treated with the test compound in various concentrations and that of the untreated cells. [formula]
From the cell growth inhibition percentage thus obtained, the concentration of the test compound which inhibits cell growth by 50%, i.e. IC50 value, was determined.

Structures are written as SMILES.

Usually ED50 stands for the dose that gives a 50% effect, or the effect in half of the subjects. Low readings indicate greater potency, high ones weaker potency. Usually LD50 stands for the dose at which mortality reaches 50%. A lower LD50 goes with greater toxicity. The molecule `CO[C@@]12[C@H](COC(N)=O)C3=C(C(=O)C4=C(OC5=C(C4)C(=O)CC(C)C5)C3=O)N1C[C@@H]1N[C@@H]12` (single isomer, unassigned) [Compound 36] returned a median effective dose (ED50) with Sarcoma 180 solid tumor of 1.3 mg/kg. In addition, the LD50 at 336 h in the series “Acute toxicity” was found to be 4.4 mg/kg.

`COc1ccc(C2CC(=O)C3=C(C2)OC2=C(C3)C(=O)C3=C(C2=O)[C@@H](COC(N)=O)[C@@]2(OC)[C@H]4N[C@H]4CN32)cc1` (single isomer, unassigned) [Compound 38] registered an ED50 in the series with Sarcoma 180 solid tumor of 12 mg/kg.

As usually defined, the IC50 is the concentration that inhibits the measured activity by half. A lower IC50 goes with greater potency. The molecule `CCC1=C(N)C(=O)C2=C(C1=O)N1C[C@@H]3N[C@@H]3[C@]1(OC)[C@@H]2COC(N)=O` [Compound 1, 6-demethyl-6-ethylmitomycin C] yielded a 50% effective dose (ED50) in the series with Sarcoma 180 solid tumor of 6.7 mg/kg. The molecule further showed an IC50 in the series with HeLaS3 cells of 3000 µM. In the series “Acute toxicity”, this molecule displayed an LD50 at 336 h of 38 mg/kg.

In the series with Sarcoma 180 solid tumor, `CO[C@@]12[C@H](COC(N)=O)C3=C(C(=O)C(Cc4ccccc4)=C(N)C3=O)N1C[C@@H]1N[C@@H]12` [Compound 7, 6-benzyl-6-demethylmitomycin C] came in with an ED50 of 18 mg/kg. Also, the IC50 in the series with HeLaS3 cells stood at 2300 µM. Besides, in “Acute toxicity”, the median lethal dose (LD50) at 336 h was > 50 mg/kg.

In the case of `CO[C@@]12[C@H](COC(N)=O)C3=C(C(=O)C(CC4=C(O)CC(C)(C)CC4=O)=C(N)C3=O)N1C[C@@H]1N[C@@H]12` [Compound 9], in the series with Sarcoma 180 solid tumor, the ED50 came to 8 mg/kg. Moreover, the IC50 with HeLaS3 cells was found to be 1500 µM. The same molecule registered a median lethal dose (LD50) at 336 h in the series “Acute toxicity” of 30 mg/kg.

`CCOC(=O)C(C)(CC1=C(OC)C(=O)C2=C(C1=O)N1C[C@@H]3N[C@@H]3[C@]1(OC)[C@@H]2COC(N)=O)C(C)=O` (stereo partly drawn) [Compound 10] displayed a half-maximal inhibitory concentration (IC50) with HeLaS3 cells of 1600 µM. That is a millimolar value.

In turn, `CCOC(=O)C1=C(C)OC2=C(C1)C(=O)C1=C(C2=O)[C@@H](COC(N)=O)[C@@]2(OC)[C@H]3N[C@H]3CN12` [Compound 12] came in with an ED50 in the series on Sarcoma 180 solid tumor of 0.7 mg/kg. In “Acute toxicity”, the LD50 at 336 h is 5.2 mg/kg.

In turn, `CO[C@@]12[C@H](COC(N)=O)C3=C(C(=O)C4=C(OC5=C(C4)C(=O)CC(C)(C)C5)C3=O)N1C[C@@H]1N[C@@H]12` [Compound 13] displayed an ED50 in the series on Sarcoma 180 solid tumor of 1.3 mg/kg. Besides, the midpoint of inhibition in the series on HeLaS3 cells, the IC50, lay at 84 µM. Also, in the series “Acute toxicity”, the LD50 at 336 h turned out to be 2.9 mg/kg.

Regarding `CO[C@@]12[C@H](COC(N)=O)C3=C(C(=O)C4=C(OC5=C(C4)C(=O)CCC5)C3=O)N1C[C@@H]1N[C@@H]12` [Compound 14], the ED50 with Sarcoma 180 solid tumor worked out at 0.84 mg/kg. The same molecule yielded a concentration for half-maximal inhibition (IC50) in the series on HeLaS3 cells of 65 µM. Moreover, the LD50 at 336 h in the series “Acute toxicity” worked out at 2.2 mg/kg.

On to `CCC1=C(OC)C(=O)C2=C(C1=O)N1C[C@@H]3N[C@@H]3[C@]1(OC)[C@@H]2COC(N)=O` [Compound 15, 6-demethyl-6-ethylmitomycin A], for which the 50% effect level in the series on Sarcoma 180 solid tumor (ED50) was put at a dose of 2.8 mg/kg. In “Acute toxicity”, this molecule had an LD50 at 336 h of 8.2 mg/kg.

Molecule `CCC1=C(OC)C(=O)C2=C(C1=O)N1C[C@H]3[C@H](N3C)[C@]1(O)[C@H]2COC(N)=O` (stereo partly drawn) [Compound 16, 6-demethyl-6-ethylmitomycin B] returned an ED50 in the series with Sarcoma 180 solid tumor of 14 mg/kg. For the same molecule, the median lethal dose (LD50) at 336 h in “Acute toxicity” was 25 mg/kg.

As to `CO[C@@]12[C@H](COC(N)=O)C3=C(C(=O)C4=C(OC(C)=C(C(=O)c5ccccc5)C4)C3=O)N1C[C@@H]1N[C@@H]12` [Compound 30], the median effective dose (ED50) with Sarcoma 180 solid tumor is 5.8 mg/kg.

In the series with Sarcoma 180 solid tumor, `CO[C@@]12[C@H](COC(N)=O)C3=C(C(=O)C4=C(OC5=C(C4)C(=O)CC(C)C5)C3=O)N1C[C@@H]1N[C@@H]12` (stereo partly drawn) [Compound 37] yielded a 50% effective dose (ED50) of 0.93 mg/kg.
